This note sets out measurements from article PMC8929364, “Metopimazine is primarily metabolized by a liver amidase in humans” (Pharmacology Research & Perspectives, 2021).

What all share (assay type): in vitro ADME
The nature of data set [1]: Incubation of MPZ in human liver S9. The settings on record: 2.5 µM MPZ, human liver S9 1 mg/ml, NADPH, 60 min. How it is done: (§1) An initial experiment was conducted with S9 fractions from liver and intestine to assess the role of liver and intestinal enzymes in the metabolism of MPZ. The reaction mixture contained 2.5 µM MPZ, pooled human liver or intestine S9 fraction (1 mg/ml S9 protein), 100 mM KPi buffer (pH 7.4). The reaction mixture was pre‐incubated for 3–5 min at 37°C in a humidified incubator filled with 5% CO2 followed by the addition of NADPH (1 mM) to initiate the reaction. The reaction was incubated for 0 and 60 min. The total percentage of organic solvent in the incubation mixture was ≤0.1%. The reactions were terminated by the addition of sample mixture of acetonitrile and ethanol (90:10, v/v). The positive control substrate, 7‐EC, was incubated in triplicate in an identical manner as MPZ for S9 fractions.
(§2) The degree of disappearance of each analyte was evaluated by comparing the PAR of analyte to IS or concentration in different sampling time points to the PAR of time zero, (t = 0, 100%). The percent of parent remaining values were calculated according to the following equation: %parentremaining=(meanconcentrationorPARateachsamplingtimepoint/meanconcentrationorPARoftimezero)×100

Data set [2] can be described thus: Incubation of MPZ in human intestine S9. The settings on record: 2.5 µM MPZ, human intestine S9 1 mg/ml, NADPH, 60 min. How it is done: as §1, §2
The nature of data set [3]: Incubation of MPZ with human kidney microsomes (HKM). The settings on record: pH 8.4, NADPH, HKM 0.5 mg/ml, 60 min. As to the method:
MPZ, at 1.0 and 10.0 µM, was incubated with HLM or HKM to determine the contribution of microsomal FMOs on the metabolism of MPZ.
A reaction mixture containing KPi buffer (pH 8.4), HLM or HKM (0.5 mg/ml protein) and MPZ (1.0 and 10.0 µM) was pre‐incubated for 3–5 min at 37°C. The reaction was initiated by the addition of NADPH into the reaction mixture. The reaction was conducted for 0 and 60 min. A positive control (benzydamine, 100 µM) was incubated in duplicate for 0 and 20 min. Parallel incubation was conducted by adding 1 mM methimazole, a non‐specific FMO inhibitor, under identical conditions. Heat‐inactivated microsomes (50°C for at least 5 min) was incubated under identical conditions negative control. All other procedures were the same as described previously.

A further data set concerns the target T1, rhFMO1 (Homo sapiens, UniProt Q01740).
T1 construct: purchased Corning Inc
T1 sequence (Q01740 1-532): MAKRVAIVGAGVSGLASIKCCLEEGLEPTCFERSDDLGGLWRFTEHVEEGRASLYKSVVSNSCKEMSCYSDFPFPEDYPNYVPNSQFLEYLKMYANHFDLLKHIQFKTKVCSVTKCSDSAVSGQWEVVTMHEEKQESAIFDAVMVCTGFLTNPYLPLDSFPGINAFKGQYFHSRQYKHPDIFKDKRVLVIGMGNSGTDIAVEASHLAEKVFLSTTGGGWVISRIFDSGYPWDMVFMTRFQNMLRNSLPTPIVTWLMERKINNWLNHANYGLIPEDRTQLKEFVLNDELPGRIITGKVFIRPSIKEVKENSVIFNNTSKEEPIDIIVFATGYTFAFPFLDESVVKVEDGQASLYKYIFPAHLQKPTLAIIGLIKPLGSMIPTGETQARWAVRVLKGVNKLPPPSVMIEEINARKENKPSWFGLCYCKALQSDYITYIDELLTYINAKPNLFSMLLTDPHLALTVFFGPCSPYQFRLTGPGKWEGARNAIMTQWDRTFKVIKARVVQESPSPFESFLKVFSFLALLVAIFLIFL
The data set is described as follows: Incubation of MPZ with recombinant FMO: FMO1. The settings on record: 1 µM MPZ, pH 8.4. As to the method: (§3) MPZ at 1.0 µM was incubated in triplicate with individual recombinant FMO (Supersomes™ for FMO 1, FMO3, and FMO5). Protein concentrations for all rFMO isoforms were 0.05 mg/ml. A positive control (benzydamine, 100 µM) was incubated for 20 min. The reaction mixture containing MPZ or FMO substrate, KPi buffer (pH 8.4), and FMO Supersomes™ was pre‐incubated at 37°C for 3–5 min. All other procedures were the same as described previously. The negative control reactions were incubated absence of NADPH.

The next data set addresses T2, rhFMO5 (Homo sapiens, UniProt P49326).
T2 construct: purchased Corning Inc
T2 sequence (P49326 1-533): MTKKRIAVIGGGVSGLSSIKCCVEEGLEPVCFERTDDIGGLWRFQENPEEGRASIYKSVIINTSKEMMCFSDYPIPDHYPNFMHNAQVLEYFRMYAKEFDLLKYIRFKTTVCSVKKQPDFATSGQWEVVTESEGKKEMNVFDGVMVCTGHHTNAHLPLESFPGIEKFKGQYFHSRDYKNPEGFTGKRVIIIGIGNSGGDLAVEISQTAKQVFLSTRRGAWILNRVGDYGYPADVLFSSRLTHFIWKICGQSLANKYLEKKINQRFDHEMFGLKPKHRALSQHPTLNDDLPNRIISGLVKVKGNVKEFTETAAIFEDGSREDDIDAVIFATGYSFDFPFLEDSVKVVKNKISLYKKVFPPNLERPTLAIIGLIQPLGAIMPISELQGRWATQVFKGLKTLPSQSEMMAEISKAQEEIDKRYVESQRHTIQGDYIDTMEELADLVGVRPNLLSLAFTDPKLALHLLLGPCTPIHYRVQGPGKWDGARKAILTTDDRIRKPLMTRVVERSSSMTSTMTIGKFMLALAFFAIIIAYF
The data set is described as follows: Incubation of MPZ with recombinant FMO: FMO5. The settings on record: 1 µM MPZ, pH 8.4. How it is done: as §3

For data set [4], the system named is human liver microsomal amidase. The data set is described as follows: Incubations with heat-treated HLM for microsomal hydrolase/amidase activity, with and without BNPP. The settings on record: 10 µM MPZ, pH 7.4, 8.4 and 9.4, 60 min. As to the method:
Prior to the reaction for amidase activity, the reaction mixture containing KPi buffer (pH 7.4, 8.4, or 9.4) and HLM was pre‐incubated at 50°C for 5 min to inactivate CYP and FMO activities in HLM. The mixture was placed on ice to cool down. An aliquot was taken out which was considered as t = 0 min incubation. Then 10 µM MPZ was added into the remaining mixture and incubated at 37°C on an orbital shaker for 60 min. A parallel set of incubations was conducted with 10 µM MPZ in the presence at 2 and 16 µM, of BNPP (a known inhibitor of amidase). All reactions were in triplicate. The total percentage of organic solvent in the incubation mixture was ≤0.1%. The reactions were terminated by the addition of chilled acetonitrile: methanol, 90:10, (v/v). The samples were vortex‐mixed and stored at ≤−70°C and were subjected analyzed by LC–MS/MS.

As for `CS(=O)(=O)c1ccc2c(c1)N(CCCN1CCC(C(N)=O)CC1)c1ccccc1S2` [MPZ, metopimazine], the “percent of MPZ disappeared” value in data set [1] is “approximately 30%”. Besides, in data set [2], the “metabolism in human intestine S9” value was “virtually no metabolism”. In addition, the “metabolite formation in HKM” value in data set [3] is listed as “did not produce any metabolites”. For the same compound, at rhFMO1, the “metabolism by rhFMO1” value is “did not metabolize MPZ”. The “metabolism by rhFMO5” value at rhFMO5 is listed as “did not metabolize MPZ”.
`CS(=O)(=O)c1ccc2c(c1)N(CCCN1CCC(C(=O)O)CC1)c1ccccc1S2` [MPZA, metopimazine acid]: the “pH dependence of MPZA formation in HLM” value in data set [4] is “faster the higher the pH”.
